The text below walks through data of article PMC9728921, “Characterization of a KDM5 small molecule inhibitor with antiviral activity against hepatitis B virus” (PLOS ONE, 2022).

Each structure is given as a SMILES string.

The nature of data set [1]: Liver to plasma AUC ratio, cynomolgus monkey. It is filed as in vivo, cynomolgus monkeys. To be noted: male, liver and plasma, po, 2.5 mg/kg, read-out: GS-080 liver to plasma AUC ratio. The protocol: Rats and monkeys were dosed by oral gavage once with 1 mg/kg or 2.5 mg/kg, respectively. The rat study included a vehicle control group (water). Serial venous blood samples were taken at 0, 0.25, 0.5, 1, 2, 4, 6, 8, 12, and 24 hours post dose from each animal and collected into vacutainer tubes containing potassium oxalate/sodium fluoride (Thermo Fisher; BD367925) as the anti-coagulant and blood was centrifuged for plasma isolation. […] For monkey, liver samples were taken by biopsy at pre-dose, 1, 4, 24, 48, and 72 hours post dose (n = 2 per time point). Rat and monkey livers were weighed and immediately flash frozen in liquid nitrogen.
500 μL of cold HPLC grade water was added to each monkey liver biopsy sample and rat liver samples were diluted 3-fold with cold HPLC grade water. Diluted liver samples were homogenized between 1 and 3 minutes. 50 μL of plasma samples and homogenized liver samples were quenched with 200 μL of 0.05% formic acid in acetonitrile. […] An Agilent 1200 series binary pump (Santa Clara, CA; G1312A) was used for elution and separation of compounds with a Hypersil Gold C18 HPLC column (Thermo Fisher; 50 x 3.0 mm, 5 μm) over 6.75 minutes with 99–3% gradient of Mobile Phase A (1% acetonitrile in 2.5 mM ammonium formate aqueous solution pH 2.6) and 1–97% gradient Mobile Phase B (90% acetonitrile in aqueous 10 mM ammonium formate pH 6.8).

The target in a further data set is T1, KDM4B (Homo sapiens, UniProt O94953).
T1 sequence (O94953 1-1096): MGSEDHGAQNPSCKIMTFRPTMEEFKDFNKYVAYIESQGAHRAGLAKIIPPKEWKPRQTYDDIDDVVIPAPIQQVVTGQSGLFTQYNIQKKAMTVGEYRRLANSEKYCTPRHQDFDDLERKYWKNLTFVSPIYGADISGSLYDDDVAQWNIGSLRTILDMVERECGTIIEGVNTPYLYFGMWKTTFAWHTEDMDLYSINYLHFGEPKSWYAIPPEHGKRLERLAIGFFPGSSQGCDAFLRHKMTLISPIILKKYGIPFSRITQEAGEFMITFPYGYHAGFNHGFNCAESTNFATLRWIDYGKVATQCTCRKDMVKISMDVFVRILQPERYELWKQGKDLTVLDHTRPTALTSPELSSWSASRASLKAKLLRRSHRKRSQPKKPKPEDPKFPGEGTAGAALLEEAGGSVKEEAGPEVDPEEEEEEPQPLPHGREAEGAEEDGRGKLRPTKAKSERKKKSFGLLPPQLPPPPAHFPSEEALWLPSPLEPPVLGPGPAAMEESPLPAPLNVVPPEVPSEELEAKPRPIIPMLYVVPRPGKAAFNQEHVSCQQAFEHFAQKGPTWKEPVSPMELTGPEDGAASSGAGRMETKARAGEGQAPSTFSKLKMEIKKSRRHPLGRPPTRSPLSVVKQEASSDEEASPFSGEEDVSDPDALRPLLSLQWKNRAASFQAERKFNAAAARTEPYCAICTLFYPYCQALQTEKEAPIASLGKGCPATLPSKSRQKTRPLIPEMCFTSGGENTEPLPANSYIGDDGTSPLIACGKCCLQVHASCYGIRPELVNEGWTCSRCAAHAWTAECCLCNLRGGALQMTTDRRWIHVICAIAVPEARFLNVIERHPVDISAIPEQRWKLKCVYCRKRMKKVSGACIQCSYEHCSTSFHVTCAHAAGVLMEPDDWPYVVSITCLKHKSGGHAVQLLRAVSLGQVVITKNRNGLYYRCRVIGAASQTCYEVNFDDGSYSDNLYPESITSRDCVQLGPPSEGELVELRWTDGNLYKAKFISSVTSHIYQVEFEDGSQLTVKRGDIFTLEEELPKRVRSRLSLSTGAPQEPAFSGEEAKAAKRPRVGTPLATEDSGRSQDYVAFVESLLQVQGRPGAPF
In words: KDM4B enzymatic assay (AlphaLISA). It is filed as biochemical. How it is done:
The following assay protocol was used for all histone demethylases tested except KDM1A, KDM5A, B, and D, which are described below. Compounds were serially diluted into a 384-well Alpha plate as a DMSO solution and mixed with 5 μL reaction buffer (buffer A) containing 50 mM HEPES (pH 7.0), 0.1% BSA, and 0.003% Tween-20. The enzyme of interest was pre-incubated with 15 μM of Fe^2+ for 10 min (except 30 min for KDM2B) in reaction buffer A. 5 μL of the enzyme mixture was added to each of the compound-containing wells and incubated for 10 min. The reaction was started by addition of a 5 μL mixture containing 300 nM peptide substrate, 75 μM L-ascorbic acid, and 30 μM α-ketoglutarate in buffer A. This final 15 μL of reaction mixture was incubated for 20 min for KDM5B and 1 hour for the other KDM enzymes. The reaction was quenched with 10 μL of diluted AlphaLISA Acceptor beads (1:400) in Epigenetics Buffer and incubated for 60 min. The Donor beads were diluted 1:400 into Epigenetics Buffer in the dark and 10 μL of this was added to each well and incubated for another 60 min in the dark. The assay plates were read on an Enspire plate reader (PerkinElmer) using a standard AlphaLISA program.
(§1) Data was analyzed using GraphPad Prism 6.0 (La Jolla, CA). […] IC50 values were calculated as an average of at least two independent experiments.
In general terms: Alpha assays give light when donor and acceptor beads are brought close together.

The target of another data set is T2, KDM5D (Homo sapiens, UniProt Q9BY66).
T2 construct: purchased Eurofins Cerep SA (assay run there as a contract service)
T2 sequence (Q9BY66 whole entry): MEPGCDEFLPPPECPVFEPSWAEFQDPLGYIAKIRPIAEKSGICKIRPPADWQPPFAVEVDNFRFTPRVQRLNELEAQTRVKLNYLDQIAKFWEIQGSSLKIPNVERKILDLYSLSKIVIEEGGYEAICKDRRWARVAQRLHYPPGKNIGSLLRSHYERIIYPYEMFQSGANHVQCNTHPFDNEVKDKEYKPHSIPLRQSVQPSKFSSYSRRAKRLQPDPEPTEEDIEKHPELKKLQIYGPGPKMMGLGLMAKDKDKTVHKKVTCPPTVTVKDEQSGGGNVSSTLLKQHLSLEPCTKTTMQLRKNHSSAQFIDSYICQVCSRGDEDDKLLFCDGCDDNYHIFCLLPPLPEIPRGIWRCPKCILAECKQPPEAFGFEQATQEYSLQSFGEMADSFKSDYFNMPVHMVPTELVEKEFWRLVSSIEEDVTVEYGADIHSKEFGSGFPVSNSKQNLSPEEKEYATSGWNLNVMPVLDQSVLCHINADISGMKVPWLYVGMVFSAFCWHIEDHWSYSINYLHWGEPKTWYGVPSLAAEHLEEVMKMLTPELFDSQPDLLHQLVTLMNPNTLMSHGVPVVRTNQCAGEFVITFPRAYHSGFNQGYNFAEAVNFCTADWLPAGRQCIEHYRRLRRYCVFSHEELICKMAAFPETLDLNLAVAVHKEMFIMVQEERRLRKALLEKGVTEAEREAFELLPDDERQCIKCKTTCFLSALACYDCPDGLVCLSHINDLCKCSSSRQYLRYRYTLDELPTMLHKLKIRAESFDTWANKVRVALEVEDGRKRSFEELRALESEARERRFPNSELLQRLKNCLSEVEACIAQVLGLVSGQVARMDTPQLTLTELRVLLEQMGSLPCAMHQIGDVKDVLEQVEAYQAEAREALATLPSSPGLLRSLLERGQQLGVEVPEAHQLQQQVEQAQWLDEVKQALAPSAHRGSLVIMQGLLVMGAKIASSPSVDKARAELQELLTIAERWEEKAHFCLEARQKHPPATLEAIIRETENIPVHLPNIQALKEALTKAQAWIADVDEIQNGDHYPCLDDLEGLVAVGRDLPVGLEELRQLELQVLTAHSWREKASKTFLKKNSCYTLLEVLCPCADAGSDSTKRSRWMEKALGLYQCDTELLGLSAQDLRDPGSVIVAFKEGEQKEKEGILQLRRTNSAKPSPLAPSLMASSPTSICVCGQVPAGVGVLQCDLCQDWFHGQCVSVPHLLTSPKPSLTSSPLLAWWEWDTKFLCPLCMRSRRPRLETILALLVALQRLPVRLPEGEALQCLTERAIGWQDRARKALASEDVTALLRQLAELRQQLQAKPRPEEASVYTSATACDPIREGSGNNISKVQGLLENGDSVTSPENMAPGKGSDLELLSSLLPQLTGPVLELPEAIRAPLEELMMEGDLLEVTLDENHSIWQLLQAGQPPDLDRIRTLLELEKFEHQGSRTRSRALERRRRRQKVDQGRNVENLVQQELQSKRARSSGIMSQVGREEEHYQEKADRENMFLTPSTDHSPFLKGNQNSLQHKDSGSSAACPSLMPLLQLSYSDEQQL
In words: KDM5D enzymatic assay (LANCE TR-FRET). It counts as biochemical. To be noted: IC50 of KDM5D over KDM5A. The protocol:
KDM5D was tested using a LANCE TR-FRET assay by Eurofins Cerep SA (France). All concentrations were final unless noted otherwise. Inhibitors were added to a mixture containing 45 mM HEPES/Tris-HCl (pH 7.5), 5 μM ferrous ammonium sulfate, 100 μM ascorbic acid, 10 μM 2-oxoglutarate, 0.01% Tween 20, 0.01% BSA, and 10 ng of enzyme, followed by addition of 100 nM biotin-H3K4me3 substrate. The 10 μL reaction mixture was incubated for 10 min at room temperature and quenched through the addition of 1 mM EDTA to reach a final concentration of 0.33 mM EDTA. After 5 min, the Eu-labeled anti-methyl histone H3K4me1-2 antibody and the Ulight streptavidin were added, and the mixture was incubated for 60 min. The fluorescence resonance energy transfer was measured using an excitation wavelength of 320 nm and emission wavelengths of 620 nm and 665 nm on an Envision plate reader (Perkin Elmer).
as §1
For orientation: Time-resolved FRET reads energy transfer from a long-lived donor to a nearby acceptor.

The format of data set [2] is in vivo, human. An excerpt:
Nevertheless, any further clinical evaluation of KMD5 inhibitors in other therapeutic areas should pay close attention to hepatotoxic effects, which might me associated with inhibition of the biologic target even at low levels of engagement.
For the clinical studies mentioned above, all patients signed an informed consent form before screening and in accordance with local regulatory and ethics committee requirements.

For the molecule `CCN(CCN(C)C)C(=O)CNCc1cc(C(=O)O)ccn1` [GS-080], the Kp in data set [1] is 176. The “Fold Selectivity Compared to KDM5A” value at KDM4B (IC50 of KDM4B over KDM5A) is listed as 13 fold; on KDM5D, 183 fold. Moreover, it took 4.7 nM to reach half-maximal inhibition against KDM4B (enzyme concentration 1 nM) (IC50).

Consider `CCOC(=O)c1ccnc(CNCC(=O)N(CC)CCN(C)C)c1` [GS-5801], for which the “HBV antigen level decreases” value in data set [2] (HBV patients, to be published elsewhere) is on record as “absence of any HBV antigen level decreases”. For the same molecule, in data set [2] (human, in vivo), the liver toxicity entry is “dose limiting, reversible liver toxicity”.
